# Reference: patent US20260159536A1, “AKR1C3-ACTIVATED DNA ALKYLATING AGENT, AND MEDICAL APPLICATION THEREOF” (ASCENTAWITS PHARMACEUTICALS, LTD., priority 2021, published 2026)
# Legend:
# NCI-H23 = experiment: AKR1C3-dependent cytotoxicity, NSCLC cell line NCI-H23; type: cell-based; settings: Homo sapiens
# Procedure: (§1) The tested compound was then added. The compound was dissolved in 100% DMSO at 200 times of the desired final test concentration. When the medicament was added, the compound was further diluted to 4 times of the desired final test concentration by using the complete medium. 50 μL of aliquots of the compound with specific concentration were added to the microwells containing 150 μL of medium, and then the final medicament concentration was obtained. […] The medicament was then washed. […] After the incubation was finished, the Alamar Blue was used to analyze and quantify the living cells.
# NCIH1755 = experiment: AKR1C3-dependent cytotoxicity, NSCLC cell line NCIH1755; type: cell-based; settings: Homo sapiens, NCI-H1755
# Procedure: as §1
# NCI-H1944 = experiment: AKR1C3-dependent cytotoxicity, NSCLC cell line NCI-H1944; type: cell-based; settings: Homo sapiens
# Procedure: as §1
# NCI-H1563 = experiment: AKR1C3-dependent cytotoxicity, NSCLC cell line NCI-H1563; type: cell-based; settings: Homo sapiens
# Procedure: as §1
# [1] = tested on: HuPrime model LI6664 human liver cancer; experiment: In vivo pharmacodynamics, liver cancer LI6664 PDX model; set-up: species or system BALB/c nude mice; settings: for relative tumor inhibition rate TGI (%): QWx3; for Relative tumor volume (x ± S) / Tumor volume (x ± S): mean ± standard error; for Tumor volume (x ± S): in mm³ (unit assumed)
# Procedure: Experiment Instruction: BALB/c nude mice were subcutaneously inoculated with HuPrime® model LI6664 tumor blocks to establish a subcutaneous transplantation tumor model of human liver cancer. […] Among them, 7.5% anhydrous ethanol+7.5% polyoxyethylene (35) castor oil+85% glucose injection D5W (pH 7.4) vehicle control group was administered by tail vein once a week for 3 consecutive weeks; test drug AST-3424 0.3 mg/kg and 1 mg/kg groups were administered by tail vein injection once a day for 5 consecutive days, followed by 2 days off, followed by 2 weeks off, and then continuously administered for 5 consecutive days; the test drug AST-3424 1.25 mg/kg group was administered by tail vein injection once a week for 2 consecutive weeks, followed by one week off, and then continuously administered for 2 consecutive weeks, Compound A 0.5 mg/kg, 1.5 mg/kg, and 4.5 mg/kg groups were administered by tail vein injection once a week for three consecutive weeks, followed by 1 week off, and then administered for three consecutive weeks. […] The efficacy was evaluated according to the relative tumor inhibition rate TGI (%), and the safety was evaluated according to the change in body weight and the death of the animals.
smiles,measurement,setting,value
O=[N+]([O-])c1ccc(C(OP(=O)(N2CC2)N2CC2)C(F)(F)F)cc1Oc1ccc(-c2ccc(F)cc2)c(F)c1 (racemic) [Compound A],IC50,NCI-H23,11900 nM
same,IC50,NCIH1755,570 nM
same,IC50,NCI-H1944,71.3 nM
same,IC50,NCI-H1563,454 nM
same,relative tumor inhibition rate TGI (%),"[1]; 0.5 mg/kg i.v. QWx3, 1 week off, Day 28",34.07%
same,relative tumor inhibition rate TGI (%),"[1]; 1.5 mg/kg i.v. QWx3, 1 week off, Day 28",66.57%
same,relative tumor inhibition rate TGI (%),"[1]; 4.5 mg/kg i.v. QWx3, 1 week off, Day 28",77.05%
same,T/C (%),"[1]; Compound A 0.5 mg/kg, Day 28",65.93%
same,Relative tumor volume (x ± S),"[1]; Compound A 0.5 mg/kg, Day 28",8.51 ± 2.07
same,Tumor volume (x ± S),"[1]; Compound A 0.5 mg/kg, Day 28",920.46 ± 215.96
same,T/C (%),"[1]; Compound A 1.5 mg/kg, Day 28",33.43%
same,Relative tumor volume (x ± S),"[1]; Compound A 1.5 mg/kg, Day 28",4.31 ± 0.54
same,Tumor volume (x ± S),"[1]; Compound A 1.5 mg/kg, Day 28",466.31 ± 77.63
same,T/C (%),"[1]; Compound A 4.5 mg/kg, Day 28",22.95%
same,Relative tumor volume (x ± S),"[1]; Compound A 4.5 mg/kg, Day 28",2.96 ± 0.27
same,Tumor volume (x ± S),"[1]; Compound A 4.5 mg/kg, Day 28",320.72 ± 40.03
same,Size of tumor volume,"[1]; Group6, Compound A 0.5 mg/kg, Day 0",108.44 mm^3
same,Size of tumor volume,"[1]; Group6, Compound A 0.5 mg/kg, Day 4",201.76 mm^3
same,Size of tumor volume,"[1]; Group6, Compound A 0.5 mg/kg, Day 7",277.38 mm^3
same,Size of tumor volume,"[1]; Group6, Compound A 0.5 mg/kg, Day 11",301.39 mm^3
same,Size of tumor volume,"[1]; Group6, Compound A 0.5 mg/kg, Day 14",347.30 mm^3
same,Size of tumor volume,"[1]; Group6, Compound A 0.5 mg/kg, Day 18",434.18 mm^3
same,Size of tumor volume,"[1]; Group6, Compound A 0.5 mg/kg, Day 21",518.23 mm^3
same,Size of tumor volume,"[1]; Group6, Compound A 0.5 mg/kg, Day 25",746.19 mm^3
same,Size of tumor volume,"[1]; Group6, Compound A 0.5 mg/kg, Day 28",920.46 mm^3
same,Size of tumor volume,"[1]; Group6, Compound A 0.5 mg/kg, Day 32",1036.44 mm^3
same,Size of tumor volume,"[1]; Group6, Compound A 0.5 mg/kg, Day 35",1258.05 mm^3
same,Size of tumor volume,"[1]; Group6, Compound A 0.5 mg/kg, Day 39",1426.66 mm^3
same,Size of tumor volume,"[1]; Group6, Compound A 0.5 mg/kg, Day 42",1661.81 mm^3
same,Size of tumor volume,"[1]; Group6, Compound A 0.5 mg/kg, Day 46",2037.97 mm^3
same,Size of tumor volume,"[1]; Group6, Compound A 0.5 mg/kg, Day 49",1746.71 mm^3
same,Size of tumor volume,"[1]; Group7, Compound A 1.5 mg/kg, Day 0",108.25 mm^3
same,Size of tumor volume,"[1]; Group7, Compound A 1.5 mg/kg, Day 4",127.56 mm^3
same,Size of tumor volume,"[1]; Group7, Compound A 1.5 mg/kg, Day 7",152.00 mm^3
same,Size of tumor volume,"[1]; Group7, Compound A 1.5 mg/kg, Day 11",161.35 mm^3
same,Size of tumor volume,"[1]; Group7, Compound A 1.5 mg/kg, Day 14",206.44 mm^3
same,Size of tumor volume,"[1]; Group7, Compound A 1.5 mg/kg, Day 18",225.71 mm^3
same,Size of tumor volume,"[1]; Group7, Compound A 1.5 mg/kg, Day 21",287.02 mm^3
same,Size of tumor volume,"[1]; Group7, Compound A 1.5 mg/kg, Day 25",398.93 mm^3
same,Size of tumor volume,"[1]; Group7, Compound A 1.5 mg/kg, Day 28",466.31 mm^3
same,Size of tumor volume,"[1]; Group7, Compound A 1.5 mg/kg, Day 32",543.94 mm^3
same,Size of tumor volume,"[1]; Group7, Compound A 1.5 mg/kg, Day 35",643.84 mm^3
same,Size of tumor volume,"[1]; Group7, Compound A 1.5 mg/kg, Day 39",805.84 mm^3
same,Size of tumor volume,"[1]; Group7, Compound A 1.5 mg/kg, Day 42",1060.20 mm^3
same,Size of tumor volume,"[1]; Group7, Compound A 1.5 mg/kg, Day 46",1179.82 mm^3
same,Size of tumor volume,"[1]; Group7, Compound A 1.5 mg/kg, Day 49",1407.10 mm^3
same,Size of tumor volume,"[1]; Group8, Compound A 4.5 mg/kg, Day 0",108.26 mm^3
same,Size of tumor volume,"[1]; Group8, Compound A 4.5 mg/kg, Day 4",125.30 mm^3
same,Size of tumor volume,"[1]; Group8, Compound A 4.5 mg/kg, Day 7",142.58 mm^3
same,Size of tumor volume,"[1]; Group8, Compound A 4.5 mg/kg, Day 11",150.82 mm^3
same,Size of tumor volume,"[1]; Group8, Compound A 4.5 mg/kg, Day 14",176.69 mm^3
same,Size of tumor volume,"[1]; Group8, Compound A 4.5 mg/kg, Day 18",180.29 mm^3
same,Size of tumor volume,"[1]; Group8, Compound A 4.5 mg/kg, Day 21",201.42 mm^3
same,Size of tumor volume,"[1]; Group8, Compound A 4.5 mg/kg, Day 25",282.76 mm^3
same,Size of tumor volume,"[1]; Group8, Compound A 4.5 mg/kg, Day 28",320.72 mm^3
